From patent US10131652B2, “Pyrimidinyloxy benzene derivatives as herbicides” (E. I. DU PONT DE NEMOURS AND COMPANY, priority 2014, dated 2018)

What was measured:
Experiment in all cases: Test F pre-/postemergence plant response
Format in all cases: in vivo
Settings in all cases: scale 0 to 100
[1] = system: Italian ryegrass (Lolium multiflorum)
Procedure, shortened: (§1)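 Values are visual ratings, where 100 is complete control and 0 is no effect, given after 14 to 21 days of greenhouse growth. Test chemicals in a non-phytotoxic, surfactant-containing solvent were sprayed on soil just after planting or on emerged seedlings at the 1- to 4-leaf stage.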

[2] = system: arrowleaf sida (Sida rhombifolia)
Procedure, shortened: as §1

[3] = system: barnyardgrass (Echinochloa crus-galli)
Procedure, shortened: as §1

corn (Zea mays) = system: corn (Zea mays)
Procedure, shortened: as §1

[4] = system: dayflower (Virginia (VA) dayflower, Commelina virginica)
Procedure, shortened: as §1

[5] = system: goosegrass (Eleusine indica)
Procedure, shortened: as §1

[6] = system: hairy beggarticks (Bidens pilosa)
Procedure, shortened: as §1

[7] = system: lambsquarters (Chenopodium album)
Procedure, shortened: as §1

[8] = system: palmer pigweed (Amaranthus palmeri)
Procedure, shortened: as §1

[9] = system: ragweed (common ragweed, Ambrosia elatior)
Procedure, shortened: as §1

[10] = system: sandbur (southern sandbur, Cenchrus echinatus)
Procedure, shortened: as §1

soybean (Glycine max) = system: soybean (Glycine max)
Procedure, shortened: as §1

[11] = system: surinam grass (Brachiaria decumbens)
Procedure, shortened: as §1

[12] = system: velvetleaf (Abutilon theophrasti)
Procedure, shortened: as §1

[13] = system: waterhemp (common waterhemp, Amaranthus rudis)
Procedure, shortened: as §1

[14] = system: yellow nutsedge (Cyperus esculentus)
Procedure, shortened: as §1

Cc1cc(-c2ccccc2Oc2ncc(Cl)cn2)on1 [Compound 58]
Plant response rating, Ryegrass, Italian ([1]; 8 g ai/ha Postemergence): 0 | Plant response rating, Ryegrass, Italian ([1]; 8 g ai/ha Preemergence): 0 | Plant response rating, Ryegrass, Italian ([1]; 16 g ai/ha Postemergence): 0 | Plant response rating, Ryegrass, Italian ([1]; 16 g ai/ha Preemergence): 0 | Plant response rating, Ryegrass, Italian ([1]; 31 g ai/ha Postemergence): 0 | Plant response rating, Ryegrass, Italian ([1]; 31 g ai/ha Preemergence): 0 | Plant response rating, Ryegrass, Italian ([1]; 62 g ai/ha Postemergence): 0 | Plant response rating, Ryegrass, Italian ([1]; 125 g ai/ha Postemergence): 0 | Plant response rating, Ryegrass, Italian ([1]; 125 g ai/ha Preemergence): 0 | Plant response rating, Ryegrass, Italian ([1]; Preemergence): 0 | Plant response rating, Arrowleaf Sida ([2]; 8 g ai/ha Postemergence): 50 | Plant response rating, Arrowleaf Sida ([2]; 8 g ai/ha Preemergence): 20 | Plant response rating, Arrowleaf Sida ([2]; 16 g ai/ha Postemergence): 70 | Plant response rating, Arrowleaf Sida ([2]; 16 g ai/ha Preemergence): 0 | Plant response rating, Arrowleaf Sida ([2]; 31 g ai/ha Postemergence): 60 | Plant response rating, Arrowleaf Sida ([2]; 31 g ai/ha Preemergence): 35 | Plant response rating, Arrowleaf Sida ([2]; 62 g ai/ha Postemergence): 75 | Plant response rating, Arrowleaf Sida ([2]; 62 g ai/ha Preemergence): 75 | Plant response rating, Arrowleaf Sida ([2]; 125 g ai/ha Postemergence): 90 | Plant response rating, Arrowleaf Sida ([2]; 125 g ai/ha Preemergence): 98 | Plant response rating, Barnyardgrass ([3]; 8 g ai/ha Postemergence): 0 | Plant response rating, Barnyardgrass ([3]; 8 g ai/ha Preemergence): 0 | Plant response rating, Barnyardgrass ([3]; 16 g ai/ha Postemergence): 0 | Plant response rating, Barnyardgrass ([3]; 16 g ai/ha Preemergence): 0 | Plant response rating, Barnyardgrass ([3]; 31 g ai/ha Postemergence): 0 | Plant response rating, Barnyardgrass ([3]; 31 g ai/ha Preemergence): 0 | Plant response rating, Barnyardgrass ([3]; 62 g ai/ha Postemergence): 0 | Plant response rating, Barnyardgrass ([3]; 62 g ai/ha Preemergence): 0 | Plant response rating, Barnyardgrass ([3]; 125 g ai/ha Postemergence): 5 | Plant response rating, Barnyardgrass ([3]; 125 g ai/ha Preemergence): 15 | Plant response rating, Corn (corn (Zea mays); 8 g ai/ha Postemergence): 0 | Plant response rating, Corn (corn (Zea mays); 8 g ai/ha Preemergence): 0 | Plant response rating, Corn (corn (Zea mays); 16 g ai/ha Postemergence): 0 | Plant response rating, Corn (corn (Zea mays); 16 g ai/ha Preemergence): 0 | Plant response rating, Corn (corn (Zea mays); 31 g ai/ha Postemergence): 0 | Plant response rating, Corn (corn (Zea mays); 31 g ai/ha Preemergence): 0 | Plant response rating, Corn (corn (Zea mays); 62 g ai/ha Postemergence): 5 | Plant response rating, Corn (corn (Zea mays); 62 g ai/ha Preemergence): 0 | Plant response rating, Corn (corn (Zea mays); 125 g ai/ha Postemergence): 5 | Plant response rating, Corn (corn (Zea mays); 125 g ai/ha Preemergence): 0 | Plant response rating, Dayflower, VA ([4]; 8 g ai/ha Postemergence): 5 | Plant response rating, Dayflower, VA ([4]; 8 g ai/ha Preemergence): 0 | Plant response rating, Dayflower, VA ([4]; 16 g ai/ha Postemergence): 5 | Plant response rating, Dayflower, VA ([4]; 16 g ai/ha Preemergence): 0 | Plant response rating, Dayflower, VA ([4]; 31 g ai/ha Postemergence): 10 | Plant response rating, Dayflower, VA ([4]; 31 g ai/ha Preemergence): 0 | Plant response rating, Dayflower, VA ([4]; 62 g ai/ha Postemergence): 20 | Plant response rating, Dayflower, VA ([4]; 125 g ai/ha Postemergence): 10 | Plant response rating, Dayflower, VA ([4]; 125 g ai/ha Preemergence): 80 | Plant response rating, Goosegrass ([5]; 8 g ai/ha Preemergence): 0 | Plant response rating, Goosegrass ([5]; 16 g ai/ha Preemergence): 0 | Plant response rating, Goosegrass ([5]; 31 g ai/ha Preemergence): 5 | Plant response rating, Goosegrass ([5]; 125 g ai/ha Preemergence): 75 | Plant response rating, Goosegrass ([5]; Preemergence): 5 | Plant response rating, Beggarticks ([6]; 8 g ai/ha Postemergence): 40 | Plant response rating, Beggarticks ([6]; 8 g ai/ha Preemergence): 0 | Plant response rating, Beggarticks ([6]; 16 g ai/ha Postemergence): 40 | Plant response rating, Beggarticks ([6]; 16 g ai/ha Preemergence): 0 | Plant response rating, Beggarticks ([6]; 31 g ai/ha Postemergence): 50 | Plant response rating, Beggarticks ([6]; 31 g ai/ha Preemergence): 0 | Plant response rating, Beggarticks ([6]; 62 g ai/ha Postemergence): 50 | Plant response rating, Beggarticks ([6]; 62 g ai/ha Preemergence): 10 | Plant response rating, Beggarticks ([6]; 125 g ai/ha Postemergence): 65 | Plant response rating, Beggarticks ([6]; 125 g ai/ha Preemergence): 20 | Plant response rating, Lambsquarters ([7]; 16 g ai/ha Preemergence): 0 | Plant response rating, Lambsquarters ([7]; 31 g ai/ha Preemergence): 65 | Plant response rating, Lambsquarters ([7]; 125 g ai/ha Preemergence): 100 | Plant response rating, Lambsquarters ([7]; Preemergence): 90 | Plant response rating, Pigweed, Palmer ([8]; 8 g ai/ha Postemergence): 50 | Plant response rating, Pigweed, Palmer ([8]; 8 g ai/ha Preemergence): 0 | Plant response rating, Pigweed, Palmer ([8]; 16 g ai/ha Postemergence): 50 | Plant response rating, Pigweed, Palmer ([8]; 16 g ai/ha Preemergence): 0 | Plant response rating, Pigweed, Palmer ([8]; 31 g ai/ha Postemergence): 50 | Plant response rating, Pigweed, Palmer ([8]; 31 g ai/ha Preemergence): 0 | Plant response rating, Pigweed, Palmer ([8]; 62 g ai/ha Postemergence): 70 | Plant response rating, Pigweed, Palmer ([8]; 125 g ai/ha Postemergence): 60 | Plant response rating, Pigweed, Palmer ([8]; 125 g ai/ha Preemergence): 35 | Plant response rating, Pigweed, Palmer ([8]; Preemergence): 35 | Plant response rating, Ragweed ([9]; 8 g ai/ha Preemergence): 0 | Plant response rating, Ragweed ([9]; 16 g ai/ha Preemergence): 0 | Plant response rating, Ragweed ([9]; 31 g ai/ha Preemergence): 0 | Plant response rating, Ragweed ([9]; 125 g ai/ha Preemergence): 75 | Plant response rating, Ragweed ([9]; Preemergence): 25 | Plant response rating, Sandbur ([10]; 8 g ai/ha Postemergence): 0 | Plant response rating, Sandbur ([10]; 8 g ai/ha Preemergence): 0 | Plant response rating, Sandbur ([10]; 16 g ai/ha Postemergence): 0 | Plant response rating, Sandbur ([10]; 16 g ai/ha Preemergence): 0 | Plant response rating, Sandbur ([10]; 31 g ai/ha Postemergence): 0 | Plant response rating, Sandbur ([10]; 31 g ai/ha Preemergence): 0 | Plant response rating, Sandbur ([10]; 62 g ai/ha Postemergence): 0 | Plant response rating, Sandbur ([10]; 125 g ai/ha Postemergence): 10 | Plant response rating, Sandbur ([10]; 125 g ai/ha Preemergence): 0 | Plant response rating, Sandbur ([10]; Preemergence): 0 | Plant response rating, Soybean (soybean (Glycine max); 8 g ai/ha Postemergence): 50 | Plant response rating, Soybean (soybean (Glycine max); 8 g ai/ha Preemergence): 0 | Plant response rating, Soybean (soybean (Glycine max); 16 g ai/ha Postemergence): 50 | Plant response rating, Soybean (soybean (Glycine max); 16 g ai/ha Preemergence): 10 | Plant response rating, Soybean (soybean (Glycine max); 31 g ai/ha Postemergence): 70 | Plant response rating, Soybean (soybean (Glycine max); 31 g ai/ha Preemergence): 20 | Plant response rating, Soybean (soybean (Glycine max); 62 g ai/ha Postemergence): 90 | Plant response rating, Soybean (soybean (Glycine max); 125 g ai/ha Postemergence): 95 | Plant response rating, Soybean (soybean (Glycine max); 125 g ai/ha Preemergence): 75 | Plant response rating, Soybean (soybean (Glycine max); Preemergence): 35 | Plant response rating, Surinam Grass ([11]; 8 g ai/ha Preemergence): 0 | Plant response rating, Surinam Grass ([11]; 16 g ai/ha Preemergence): 0 | Plant response rating, Surinam Grass ([11]; 31 g ai/ha Preemergence): 0 | Plant response rating, Surinam Grass ([11]; 125 g ai/ha Preemergence): 0 | Plant response rating, Surinam Grass ([11]; Preemergence): 0 | Plant response rating, Velvetleaf ([12]; 8 g ai/ha Preemergence): 20 | Plant response rating, Velvetleaf ([12]; 16 g ai/ha Preemergence): 70 | Plant response rating, Velvetleaf ([12]; 31 g ai/ha Preemergence): 100 | Plant response rating, Velvetleaf ([12]; 125 g ai/ha Preemergence): 100 | Plant response rating, Velvetleaf ([12]; Preemergence): 100 | Plant response rating, Waterhemp ([13]; 8 g ai/ha Postemergence): 65 | Plant response rating, Waterhemp ([13]; 8 g ai/ha Preemergence): 20 | Plant response rating, Waterhemp ([13]; 16 g ai/ha Postemergence): 60 | Plant response rating, Waterhemp ([13]; 16 g ai/ha Preemergence): 75 | Plant response rating, Waterhemp ([13]; 31 g ai/ha Postemergence): 65 | Plant response rating, Waterhemp ([13]; 31 g ai/ha Preemergence): 75 | Plant response rating, Waterhemp ([13]; 62 g ai/ha Postemergence): 80 | Plant response rating, Waterhemp ([13]; 125 g ai/ha Postemergence): 90 | Plant response rating, Waterhemp ([13]; 125 g ai/ha Preemergence): 100 | Plant response rating, Waterhemp ([13]; Preemergence): 90 | Plant response rating, Nutsedge, Yellow ([14]; 8 g ai/ha Preemergence): 0 | Plant response rating, Nutsedge, Yellow ([14]; 16 g ai/ha Preemergence): 0 | Plant response rating, Nutsedge, Yellow ([14]; 31 g ai/ha Preemergence): 0 | Plant response rating, Nutsedge, Yellow ([14]; 125 g ai/ha Preemergence): 0 | Plant response rating, Nutsedge, Yellow ([14]; Preemergence): 0
